Reference: patent US5610025A, “Inhibition of interfering endogenous enzyme activity in assays of biological fluids” (Actimed Laboratories, Inc., priority 1993, dated 1997)
Several values for one entry are separate records, joined by “and”; a condition that tells them apart may be missing. Identical values can stand only once. Counter-ions that a name gives are not always drawn.

What was measured:
Format in all cases: biochemical
[1] = target: T1, catalase (Homo sapiens, UniProt P04040); experiment: Catalase inhibitor screening, aqueous hydrogen peroxide samples with added catalase, dye indicator/peroxidase system, absorbance at 514 nm
T1 sequence (P04040 2-527 limits assumed): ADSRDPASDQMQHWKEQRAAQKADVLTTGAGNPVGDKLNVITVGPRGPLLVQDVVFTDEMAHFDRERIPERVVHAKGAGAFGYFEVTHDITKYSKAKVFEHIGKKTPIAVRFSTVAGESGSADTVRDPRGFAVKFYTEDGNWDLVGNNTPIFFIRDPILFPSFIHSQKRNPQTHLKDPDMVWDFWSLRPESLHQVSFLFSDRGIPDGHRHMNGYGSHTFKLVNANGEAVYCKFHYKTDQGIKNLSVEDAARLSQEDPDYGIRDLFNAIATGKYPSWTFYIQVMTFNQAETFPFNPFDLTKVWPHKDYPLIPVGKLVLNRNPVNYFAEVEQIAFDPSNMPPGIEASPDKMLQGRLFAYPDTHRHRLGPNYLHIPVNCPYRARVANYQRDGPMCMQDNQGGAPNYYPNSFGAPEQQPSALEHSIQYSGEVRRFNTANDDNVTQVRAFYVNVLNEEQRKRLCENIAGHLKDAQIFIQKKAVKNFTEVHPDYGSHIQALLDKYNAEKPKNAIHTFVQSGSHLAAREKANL

[2] = target: T1, catalase; experiment: Catalase inhibitor screening, aqueous cholesterol sample 50 mg/dL with catalase, reporter system Primaquine/MBTH; conditions: aqueous cholesterol 50 mg/dL with catalase, inhibitor 0.5 mM
Method: (§1) The inhibitors were added along with the extra catalase, and spectrophotometric measurements at 514 nm were obtained.
(§2) The percent recovery of absorbance is defined as follows: [formula]
(§3) In the following tables, the concentrations of inhibitor substances are expressed as the final concentration in the reaction system after accounting for dilution factors.

[3] = target: T1, catalase; experiment: Catalase inhibitor screening, plasma cholesterol sample with catalase, reporter system Primaquine/MBTH; conditions: inhibitor 0.5 mM
Method: as §1, §2, §3

In the case of `O=[N+]([O-])[O-].O=[N+]([O-])[O-].[Cu+2]` [Cupric nitrate], the “% Recovery (of absorbance)” value [1] is reported as 85%.
`CCO` [Ethanol] was tested, and the “% Recovery (of absorbance)” value [1] was 6%.
With `Cl.NO` [Hydroxylamine HCl] the “% Recovery (of absorbance)” value ([1]; HCl) was 96% and 95% and 91% and 92%, the “% Recovery (of absorbance)” value [2] was 98% and the “% Recovery (of absorbance)” value [3] was 98%.
With `NO.NO.O=S(=O)(O)O` [Hydroxylamine sulfate] the “% Recovery (of absorbance)” value [1] was 99% and 95% and 90% and 97% and 91%, the “% Recovery (of absorbance)” value [2] was 96% and the “% Recovery (of absorbance)” value [3] was 99%.
`CO` [Methanol] was tested, and the “% Recovery (of absorbance)” value [1] was 7%.
With `[Cl][Ni][Cl]` [Nickel (II) chloride] the “% Recovery (of absorbance)” value [1] was 60%.
With `Oc1cccc(O)c1` [Resorcinol] the “% Recovery (of absorbance)” value ([1]; peroxide with catalase, inhibitor concentration 0.5 mM) was 50%, the “% Recovery (of absorbance)” value ([1]; peroxide with catalase, inhibitor concentration 5 mM) was 57% and the “% Recovery (of absorbance)” value ([1]; peroxide with catalase, inhibitor concentration 40 mM) was 79%.
In the case of `[N-]=[N+]=[N-]` [Sodium azide], the “effectiveness as inhibitor of catalase activity (in words)” value [1] is reported as “most effective inhibitors of catalase activity”.
With `[F-].[Na+]` [Sodium fluoride] the “% Recovery (of absorbance)” value [1] was 7%.
In the case of `O=CO` [Sodium formate], the “% Recovery (of absorbance)” value [1] is reported as 8%.
In the case of `O=NO` [Sodium nitrite], the “% Recovery (of absorbance)” value [1] is reported as 30%.
